{"source": "the supplement of paper PMC11208160", "data": [{"assay": "recombinant barcode read abundance after kanamycin selection (control-corrected) (log10(CPM+1)); higher = more efficient recombination; sequences stand for … in AGTGCAGAGAAAATCGGCCAGTTTTCTCTGCCTGCAGTCCGCATGCCGT…AGATTTATGCAGCGGACTGCCTTTCTCCCAAAGTGATAAACCGGACAGTATCATGGACCGGTTTTCCCGGTAATCCGTATTTGCAAGGTTGGTTTCACT; site = the 11-nt target", "outline": "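This pooled E. coli screen matched targets with IS621 bridge RNA target-binding loops. Plating was done in duplicate on chloramphenicol/ampicillin LB agar as a control and on chloramphenicol/ampicillin/kanamycin plus 0.1 mM IPTG. Recombination efficiency reflects barcode counts at recombinant junctions as counts per million, averaged and control-corrected. The figures are log10(CPM+1).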", "values": [{"sequence": "GGGACTTCTTGGGTTCTAACCTGTTGCAT (site GGGTCTTCTAT)", "recombinant barcode read abundance (log10)": 0.164}, {"sequence": "GGGATGGCTTGGGTTCTAACCTGTTGCCT (site GGGATGGCTAG)", "recombinant barcode read abundance (log10)": 1.32}, {"sequence": "GGGATGGCTTGGGTTCTAACCTGTTGCCT (site TGGATGGCTAG)", "recombinant barcode read abundance (log10)": 0.0489}, {"sequence": "GGGCAACCTTGGGTTCTAACCTGTTGCGT (site GGGCAACCTAC)", "recombinant barcode read abundance (log10)": 2.84}, {"sequence": "GGGCAACCTTGGGTTCTAACCTGTTGCGT (site GGGCAGCCTAG)", "recombinant barcode read abundance (log10)": 0.117}, {"sequence": "GGGCACACTTGGGTTCTAACCTGTTGCAC (site CTTGCATCTAG)", "recombinant barcode read abundance (log10)": 0.244}, {"sequence": "GGGCACACTTGGGTTCTAACCTGTTGCAC (site GGGCACACTGT)", "recombinant barcode read abundance (log10)": 2.52}, {"sequence": "GGGCACACTTGGGTTCTAACCTGTTGCCA (site GGGAACACTTG)", "recombinant barcode read abundance (log10)": 0.193}, {"sequence": "GGGCACACTTGGGTTCTAACCTGTTGCCA (site GGGCACACTTG)", "recombinant barcode read abundance (log10)": 0.698}, {"sequence": "GGGCATCCTTGGGTTCTAACCTGTTGCAT (site GGGCATCCTAT)", "recombinant barcode read abundance (log10)": 1.82}, {"sequence": "GGGCATCCTTGGGTTCTAACCTGTTGCAT (site TCATTAGCTCG)", "recombinant barcode read abundance (log10)": 0.246}, {"sequence": "GGGCCCGCTTGGGTTCTAACCTGTTGCGG (site GGACGCGCTCC)", "recombinant barcode read abundance (log10)": 0.111}, {"sequence": "GGGCCCGCTTGGGTTCTAACCTGTTGCGG (site GGGCCCGCTCC)", "recombinant barcode read abundance (log10)": 1.29}, {"sequence": "GGGCCTACTTGGGTTCTAACCTGTTGCTA (site GGGCCTACTAA)", "recombinant barcode read abundance (log10)": 0.0406}, {"sequence": "GGGCCTACTTGGGTTCTAACCTGTTGCTA (site GGGCCTACTCA)", "recombinant barcode read abundance (log10)": 0.642}, {"sequence": "GGGCCTACTTGGGTTCTAACCTGTTGCTA (site GGGCCTACTGA)", "recombinant barcode read abundance (log10)": 0.482}, {"sequence": "GGGCCTACTTGGGTTCTAACCTGTTGCTA (site GGGCCTACTTA)", "recombinant barcode read abundance (log10)": 1.36}, {"sequence": "GGGCCTACTTGGGTTCTAACCTGTTGCTG (site GGGCCTACTAA)", "recombinant barcode read abundance (log10)": 0.165}, {"sequence": "GGGCCTACTTGGGTTCTAACCTGTTGCTG (site GGGCCTACTCA)", "recombinant barcode read abundance (log10)": 2.06}, {"sequence": "GGGCCTACTTGGGTTCTAACCTGTTGCTG (site GGGCCTACTGA)", "recombinant barcode read abundance (log10)": 0.215}, {"sequence": "GGGCCTACTTGGGTTCTAACCTGTTGCTG (site GGGCCTACTTA)", "recombinant barcode read abundance (log10)": 0.121}, {"sequence": "GGGGAATCTTGGGTTCTAACCTGTTGCAT (site GGGGAATCTAT)", "recombinant barcode read abundance (log10)": 1.96}, {"sequence": "GGGGAATCTTGGGTTCTAACCTGTTGCAT (site GGGGACTCTGT)", "recombinant barcode read abundance (log10)": 0.079}, {"sequence": "GGGGACTCTTGGGTTCTAACCTGTTGCAC (site GGGGAATCTAT)", "recombinant barcode read abundance (log10)": 0.0994}, {"sequence": "GGGGACTCTTGGGTTCTAACCTGTTGCAC (site GGGGACTCTGT)", "recombinant barcode read abundance (log10)": 3.1}, {"sequence": "GGGGCACCTTGGGTTCTAACCTGTTGCTA (site GGGGCACCTTA)", "recombinant barcode read abundance (log10)": 2.35}, {"sequence": "GGGGCACCTTGGGTTCTAACCTGTTGCTA (site TGGGCACCTAA)", "recombinant barcode read abundance (log10)": 0.128}, {"sequence": "GGGGCGCCTTGGGTTCTAACCTGTTGCCT (site GGGGCGACTAG)", "recombinant barcode read abundance (log10)": 0.44}, {"sequence": "GGGGCGCCTTGGGTTCTAACCTGTTGCCT (site GGGGCGCCTAG)", "recombinant barcode read abundance (log10)": 1.76}, {"sequence": "GGGGCGCCTTGGGTTCTAACCTGTTGCCT (site GGGGCGGCTAG)", "recombinant barcode read abundance (log10)": 0}, {"sequence": "GGGGCGCCTTGGGTTCTAACCTGTTGCCT (site GGGGCGTCTAG)", "recombinant barcode read abundance (log10)": 0.279}, {"sequence": "GGGGTGTCTTGGGTTCTAACCTGTTGCCG (site ATTTAACCTAC)", "recombinant barcode read abundance (log10)": 0.0514}, {"sequence": "GGGGTGTCTTGGGTTCTAACCTGTTGCCG (site GGGGTGTCTCG)", "recombinant barcode read abundance (log10)": 0.675}, {"sequence": "GGGGTGTCTTGGGTTCTAACCTGTTGCTG (site GGGCTGTCTAA)", "recombinant barcode read abundance (log10)": 0.448}, {"sequence": "GGGGTGTCTTGGGTTCTAACCTGTTGCTG (site GGGGTGTCTCA)", "recombinant barcode read abundance (log10)": 0.413}, {"sequence": "GGGGTTCCTTGGGTTCTAACCTGTTGCAT (site GGGGTTCCTAA)", "recombinant barcode read abundance (log10)": 0.164}, {"sequence": "GGGGTTCCTTGGGTTCTAACCTGTTGCAT (site GGGGTTCCTAC)", "recombinant barcode read abundance (log10)": 0.129}, {"sequence": "GGGGTTCCTTGGGTTCTAACCTGTTGCAT (site GGGGTTCCTAG)", "recombinant barcode read abundance (log10)": 1.19}, {"sequence": "GGGGTTCCTTGGGTTCTAACCTGTTGCAT (site GGGGTTCCTAT)", "recombinant barcode read abundance (log10)": 2.47}, {"sequence": "GGGTCACCTTGGGTTCTAACCTGTTGCGG (site CCAAAGACTAA)", "recombinant barcode read abundance (log10)": 0.564}, {"sequence": "GGGTCACCTTGGGTTCTAACCTGTTGCGG (site GGGTCACCTCC)", "recombinant barcode read abundance (log10)": 2.8}, {"sequence": "GGGTCCACTTGGGTTCTAACCTGTTGCGG (site GGGTCCACTCC)", "recombinant barcode read abundance (log10)": 2.02}, {"sequence": "GGGTCCACTTGGGTTCTAACCTGTTGCGG (site GGGTCCACTTG)", "recombinant barcode read abundance (log10)": 0.143}, {"sequence": "GGGTCGCCTTGGGTTCTAACCTGTTGCTT (site CGGCCGCCTAA)", "recombinant barcode read abundance (log10)": 0.364}, {"sequence": "GGGTCGCCTTGGGTTCTAACCTGTTGCTT (site GGGTCGCCTAA)", "recombinant barcode read abundance (log10)": 0.128}, {"sequence": "GGGTCGGCTTGGGTTCTAACCTGTTGCGT (site GGGTCGGCTAC)", "recombinant barcode read abundance (log10)": 2.68}, {"sequence": "GGGTCGGCTTGGGTTCTAACCTGTTGCGT (site GGGTCGGCTCC)", "recombinant barcode read abundance (log10)": 0.076}, {"sequence": "GGGTCGGCTTGGGTTCTAACCTGTTGCGT (site GGGTCGGCTGC)", "recombinant barcode read abundance (log10)": 0.347}, {"sequence": "GGGTCGGCTTGGGTTCTAACCTGTTGCGT (site GGGTCGGCTTC)", "recombinant barcode read abundance (log10)": 0.0402}, {"sequence": "GGGTCTTCTTGGGTTCTAACCTGTTGCAT (site GGGACTTCTAT)", "recombinant barcode read abundance (log10)": 0.0343}, {"sequence": "GGGTCTTCTTGGGTTCTAACCTGTTGCAT (site GGGCCTTCTAT)", "recombinant barcode read abundance (log10)": 0.152}, {"sequence": "GGGTCTTCTTGGGTTCTAACCTGTTGCAT (site GGGGCTTCTAT)", "recombinant barcode read abundance (log10)": 0.0588}, {"sequence": "GGGTCTTCTTGGGTTCTAACCTGTTGCAT (site GGGTCTTCTAT)", "recombinant barcode read abundance (log10)": 0.575}, {"sequence": "GGGTTTGCTTGGGTTCTAACCTGTTGCCT (site GAGTTTGCTAG)", "recombinant barcode read abundance (log10)": 0}, {"sequence": "GGGTTTGCTTGGGTTCTAACCTGTTGCCT (site GCGTTTGCTAG)", "recombinant barcode read abundance (log10)": 0.0869}, {"sequence": "GGGTTTGCTTGGGTTCTAACCTGTTGCCT (site GGGTTTGCTAG)", "recombinant barcode read abundance (log10)": 1.14}, {"sequence": "GGGTTTGCTTGGGTTCTAACCTGTTGCCT (site GTGTTTGCTAG)", "recombinant barcode read abundance (log10)": 0.667}, {"sequence": "GGTACTACTTGGGTTCTAACCTGTTGCAT (site CGTACTACTGT)", "recombinant barcode read abundance (log10)": 0.0302}, {"sequence": "GGTACTACTTGGGTTCTAACCTGTTGCAT (site GGTACTACTAT)", "recombinant barcode read abundance (log10)": 0.54}]}]}
